In patent publication US7531565B2, “Imidazolidin-2-one derivatives as selective androgen receptor modulators (SARMS)” (Janssen Pharmaceutica, N.V., priority 2004, dated 2009):

Tests used:
[1] = target: T1, androgen receptor (Rattus norvegicus, UniProt P15207); test: Androgen receptor binding using rat ventral prostate cytosol; set-up: Male Sprague Dawley or Wistar rats (Charles River, 200-300 g) were used for each preparation; from tissue; host or cells: ventral prostate cytosol of castrated male Sprague Dawley or Wistar rats
T1 sequence (P15207 1-902): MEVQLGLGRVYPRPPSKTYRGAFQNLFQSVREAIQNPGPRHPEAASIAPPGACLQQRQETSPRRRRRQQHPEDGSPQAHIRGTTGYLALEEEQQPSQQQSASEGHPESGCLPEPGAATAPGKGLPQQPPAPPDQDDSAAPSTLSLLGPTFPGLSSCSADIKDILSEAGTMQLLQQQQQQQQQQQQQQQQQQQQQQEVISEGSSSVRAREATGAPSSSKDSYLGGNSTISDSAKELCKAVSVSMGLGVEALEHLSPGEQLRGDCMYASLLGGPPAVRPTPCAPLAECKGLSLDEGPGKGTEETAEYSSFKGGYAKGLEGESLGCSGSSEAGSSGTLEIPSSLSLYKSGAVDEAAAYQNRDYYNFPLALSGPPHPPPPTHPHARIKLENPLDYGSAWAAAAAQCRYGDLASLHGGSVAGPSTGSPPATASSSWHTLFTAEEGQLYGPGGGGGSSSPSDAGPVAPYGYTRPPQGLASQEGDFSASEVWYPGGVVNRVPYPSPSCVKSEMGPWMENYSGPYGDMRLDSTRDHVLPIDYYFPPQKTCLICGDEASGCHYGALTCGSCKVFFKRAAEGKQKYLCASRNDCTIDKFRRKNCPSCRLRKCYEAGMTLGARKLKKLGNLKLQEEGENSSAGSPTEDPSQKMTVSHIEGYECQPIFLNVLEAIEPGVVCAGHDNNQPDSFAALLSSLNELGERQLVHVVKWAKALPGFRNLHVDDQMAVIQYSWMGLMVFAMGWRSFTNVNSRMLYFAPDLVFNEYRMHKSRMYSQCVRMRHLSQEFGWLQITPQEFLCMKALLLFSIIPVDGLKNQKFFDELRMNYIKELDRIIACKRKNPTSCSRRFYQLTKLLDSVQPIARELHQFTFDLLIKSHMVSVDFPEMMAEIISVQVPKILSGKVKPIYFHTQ

[2] = target: T1, androgen receptor; test: L929 androgen receptor functional assay, adenovirus transduction; assay type: cell-based; set-up: expressed in transfected cells; conditions: for % Activition @ 3 μM: agonist testing (no R1881), luciferase
Description: L929 cells were plated in 96-well plates at 20,000 cells per well, in DMEM/F12 (GIBCO) containing 10% (v/v) charcoal-treated fetal bovine serum (Hyclone) and lacking phenol red. The plates were then incubated overnight at 37° C. in 5% (v/v) humidified CO2.
Test compound dilutions were prepared in 100% (v/v) DMSO, if necessary. Each dilution was made to 1250× the final desired assay concentration. First, 2 mL of DMEM/F12 lacking phenol red was pipetted into the wells of a 2-mL 96-well assay block. Next, 4 μL of the 1250× test compound dilutions were pipetted into each well of the assay block. The mixtures within the well were then carefully mixed by pipette.
In a 15 mL or 50 mL sterile centrifuge tube, a 2.5 nM (2.5×) dilution of R1881 (methyl-trienolone) in DMEM/F12 lacking phenol red was prepared. In a second 15 mL or 50 mL centrifuge tube a solution containing an equal volume of DMEM to the first and an equal volume of 100% (v/v) DMSO to the volume of R1881 used in the first tube was prepared.
In a 15 mL or 50 mL sterile centrifuge tube, a dilution in DMEM/F12 of the adenovirus AdEasy+rAR at an moi of 1:500 per well was prepared. The medium was removed from the 96-well plates by inversion and dried, inverted, very briefly. As soon as possible after medium removal, 40 μL of the diluted unlabeled test compound was added to each well, in duplicate. To each well designated for antagonist testing was added 40 μL of the 2.5 nM R1881 dilution to the wells for antagonist testing. To each well designated for agonist testing was added 40 μL of the DMSO dilution. Then 20 μL of the diluted adenovirus were added to all wells. The plates were incubated for 48 hours at 37° C. in 5% (v/v) humidified CO2.
To each well was added 100 μL of Steady-Glo luciferase assay substrate (Promega) and the plates were placed on a rotary shaker for 1 min. The plates were then incubated at room temperature in the dark for one hour. The contents of each well were then transferred to a white microtiter plate (Packard) and read on a Luminoskan Ascent (Thermo Lab Systems).
L929 AR percent activity was determined by testing dilutions of the test compound using a concentration of 3000 nM unless otherwise noted. L929 percent inhibition was determined by testing dilutions of the test compound using a concentration of 3000 nM. EC50s and IC50s were determined by testing serial dilutions of the test compound (usually duplicate ten half-log dilutions starting at 10 μM). Luciferase activity per well were measured and EC50s and IC50s determined by linear regression.
Representative compounds of the present invention were tested for functional activity at the androgen receptor according to the procedure described above with results as listed in Table 4.

[3] = 3 μM, L929 cells, antagonist testing with R1881, luciferase

Row | Structure (SMILES) | % Inhibition @ 3 μM [1] [%] | % Activition @ 3 μM ([2]; 3 μM, L929 cells) [%] | % Inhibition @ 3 μM [2, 3] [%] | inhibition at 3 µM [1] [%] | inhibition at 3 µM ([2]; 3 μM, L929 cells, antagonist testing with R1881, luciferase, read-out: % Inhibition @ 3 μM) [%] | inhibition at 3 µM ([2]; L929, read-out: % Inhibition @ 3 μM) [%]
1 | CC1(C(=O)Nc2ccc(C(F)(F)F)nc2)CN(c2ccccc2)C(=O)N1 (racemic) [Compound 6j] | −75 | 0 | 29 | – | – | –
2 | CC1(C(=O)Nc2ccccc2)CN(c2ccccc2)C(=O)N1 (racemic) [Compound 6b] | −68 | 0 | 54 | – | – | –
3 | CC1(C(=O)O)CN(c2ccc(F)cc2)C(=O)N1 (stereo not drawn) [Compound 5a, 1-(4-Fluoro-phenyl)-4-methyl-2-oxo-imidazolidine-4-carboxylic acid] | – | 1 | – | 33 | 15 | –
4 | CC1(C(=O)Nc2ccc(C#N)c(C(F)(F)F)c2)CN(c2ccc(F)cc2)C(=O)N1 (stereo not drawn) [Compound 6a, 1-(4-Fluoro-phenyl)-4-methyl-2-oxo-imidazolidine-4-carboxylic acid (4-cyano-3-trifluoromethyl-phenyl)-amide] | – | 9 | – | 63 | – | 37
5 | COC(=O)C1(C)CN(c2ccccc2)C(=O)N1 (racemic) [Compound 4b] | −71 | 0 | 34 | – | – | –
6 | CC1(C(=O)Nc2ccc(C#N)c(C(F)(F)F)c2)CN(c2ccccc2)C(=O)N1 (racemic) [Compound 6d] | 1 | 0 | 59 | – | – | –
7 | CC1(C(=O)Nc2cc(C(F)(F)F)cc(C(F)(F)F)c2)CN(c2ccc(F)cc2)C(=O)N1 (racemic) [Compound 6h] | −17 | 0 | 21 | – | – | –
8 | CC1(C(=O)Nc2ccc([N+](=O)[O-])c(C(F)(F)F)c2)CN(c2ccccc2)C(=O)N1 (racemic) [Compound 6e] | −71 | 2 | 96 | – | – | –
9 | CC1(C(=O)Nc2cccc(C(F)(F)F)c2)CN(c2ccc(F)cc2)C(=O)N1 (racemic) [Compound 6g] | 23 | 0 | −12 | – | – | –
10 | COC(=O)C1(C)CN(c2ccc(Cl)c(C(F)(F)F)c2)C(=O)N1 (racemic) [Compound 4d] | 24 | 0 | 1 | – | – | –
11 | COC(=O)C1(C)CN(c2ccc(OC)cc2)C(=O)N1 (racemic) [Compound 4c] | −36 | 2 | 5 | – | – | –
12 | CC1(C(=O)O)CN(c2ccc(Cl)c(C(F)(F)F)c2)C(=O)N1 (racemic) [Compound 5d] | 28 | 0 | −30 | – | – | –
13 | COC(=O)C1(C)CN(c2ccc(C#N)c(C(F)(F)F)c2)C(=O)N1 (racemic) [Compound 4e] | −68 | 0 | −15 | – | – | –
14 | COc1ccc(N2CC(C)(C(=O)Nc3ccc(C#N)c(C(F)(F)F)c3)NC2=O)cc1 (racemic) [Compound 6c] | 29 | 0 | 11 | – | – | –
15 | CC1(C(=O)O)CN(c2ccccc2)C(=O)N1 (racemic) [Compound 5b] | −110 | 0 | 32 | – | – | –
16 | COc1ccc(N2CC(C)(C(=O)O)NC2=O)cc1 (racemic) [Compound 5c] | −21 | −5 | −14 | – | – | –
